Structures can show the parent of a compound that is named as a salt. Where two headings read alike, the source gives them in different places.
Columns and labels:
[1] = system: APP-PS1 mice; assay: Neuroinflammation (astrogliosis, anti-GFAP immunostaining) in APP-PS1 mice; type: in vivo, mouse
[2] = biological target: Electrophorus electricus (ee) AChE (Electrophorus electricus (Electric eel) (Gymnotus electricus), UniProt O42275); assay: AChE inhibition assay (Ellman), eeAChE; type: biochemical
Chain of Electrophorus electricus (ee) AChE (O42275 whole entry, looked up): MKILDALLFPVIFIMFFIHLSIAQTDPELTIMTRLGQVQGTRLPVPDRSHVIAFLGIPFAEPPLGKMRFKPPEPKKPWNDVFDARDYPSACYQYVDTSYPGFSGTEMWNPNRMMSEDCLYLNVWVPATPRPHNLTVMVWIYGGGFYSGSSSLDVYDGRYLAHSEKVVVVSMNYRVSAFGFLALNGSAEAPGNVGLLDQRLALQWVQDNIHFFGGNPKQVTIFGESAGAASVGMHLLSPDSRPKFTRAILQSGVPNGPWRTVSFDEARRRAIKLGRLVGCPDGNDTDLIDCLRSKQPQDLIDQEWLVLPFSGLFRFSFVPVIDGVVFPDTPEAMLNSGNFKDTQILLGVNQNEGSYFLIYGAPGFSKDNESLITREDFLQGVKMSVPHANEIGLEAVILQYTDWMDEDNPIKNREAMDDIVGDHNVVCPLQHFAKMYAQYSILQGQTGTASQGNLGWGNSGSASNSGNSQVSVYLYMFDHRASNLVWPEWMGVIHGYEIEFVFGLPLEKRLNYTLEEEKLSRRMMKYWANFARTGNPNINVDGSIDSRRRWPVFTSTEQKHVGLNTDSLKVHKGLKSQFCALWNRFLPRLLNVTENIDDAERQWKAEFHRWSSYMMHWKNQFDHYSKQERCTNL
Experimental: AChE inhibitory activity of compounds (Ia)-(Ie) and (−)-(Ib) and (+)-(Ib) was evaluated spectrophotometrically at 25° C. by the method of Ellman et al., using recombinant human AChE (hAChE) and Electrophorus electricus (ee) AChE and acetylthiocholine iodide as substrate (cf. G. L. Ellman et al., “New and Rapid Colorimetric Determination of Acetylcholinesterase Activity” Biochem. Pharmacol. 1961, vol. 7, pp. 88-95). For eeAChE inhibitory activity determination, the reaction took place in a final volume of 300 μL of 0.1 M phosphate-buffered solution pH 8.0, containing 0.03 unit/mL of ee AChE and 333 μM 5,5′-dithiobis(2-nitrobenzoic) acid (DTNB) solution used to produce the yellow anion of 5-thio-2-nitrobenzoic acid. Inhibition curves were performed in duplicates using at least 10 increasing concentrations of inhibitor and preincubating at 37° C. for 20 min. One duplicate sample without inhibitor was always present to yield 100% of AChE activity. Then, substrate acetylthiocholine (450 μM) was added and the reaction was developed at 37° C. for 5 min. The color production was measured at 414 nm.
Results are expressed as mean±S.E.M. of at least 4 experiments performed in duplicate. DTNB, acetylthiocholine, butyrylthiocholine, and enzymes were purchased from Sigma.

[3] = system: APP-PS1 mice; assay: Total load of brain amyloid deposits in APP-PS1 mice (Aβ 6E10 immunodetection); type: in vivo, mouse
[4] = system: APP-PS1 mice; assay: Electrophysiology (LTP) in hippocampal slices from treated APP-PS1 mice; type: in vivo, mouse; conditions: for LTP magnitude at 60 min: compared with untreated brain slices; for LTP generation (in words): slices from treated APP-PS1 mice
[5] = system: APP-PS1 mice; assay: Senile plaques in APP-PS1 mice (Thioflavin-S staining); type: in vivo, mouse
[6] = system: hippocampal slices treated with Aβ oligomers; assay: Synaptic protein levels of hippocampal slices in the presence of Aβ oligomers (western blot); type: cell-based, C57bl6 mice; conditions: co-treatment with Aβ oligomers, 1 h
Experimental: The hippocampus of treated or control transgenic mice were dissected on ice and immediately frozen at −150° C. or processed. Briefly, hippocampal tissue were homogenized in RIPA buffer (50 mM Tris-Cl, pH 7.5, 150 mM NaCl, 1% NP-40, 0.5% sodium deoxycholate, and 1% SDS) supplemented with a protease inhibitor cocktail (Sigma-Aldrich P8340) and phosphatase inhibitors (50 mM NaF, 1 mM Na3VO4 and 30 μM Na4P207) using a Potter homogenizator and then passed sequentially through different caliber syringes. Protein samples were centrifuged at 14000 rpm at 4° C. twice for 10 min. Protein concentration was determined using the BCA Protein Assay Kit (Pierce Biotechnology, Rockford, Ill.). 20 and 40 micrograms of hippocampal samples were resolved by 10% SDS-PAGE, transferred to a PVDF membrane. The reactions were followed by incubation with primary antibodies, secondary antibodies anti-mouse, anti-goat or anti-rabbit IgG peroxidase conjugated (Pierce) and developed using an ECL kit (Western Lightning Plus ECL, Perkin Elmer).
In slices co-treated with (−)-(Ib) (FIG. 4A), the neuroprotective effect of the compound was observed.

[7] = system: APP-PS1 mice; assay: Memory flexibility test (Morris water maze variant) in APP-PS1 mice; type: in vivo, mouse
[8] = system: human recombinant AChE-induced Aβ1-40 aggregation; assay: AChE-induced Aβ1-40 aggregation inhibition assay (thioflavin T); conditions: inhibitor 100 μM
Experimental: Aβ1-40, supplied as trifluoroacetate salt, was purchased from Bachem AG (Germany). Aβ1-40 (2 mg mL^−1) was dissolved in HFIP, lyophilized, and then resolubilized in DMSO to get a 2.3 mM Aβ1-40 solution. 1 mM Solutions of tested inhibitors were prepared by dissolution in MeOH.
Aliquots of 2 μL Aβ1-40 peptide were incubated for 24 h at room temperature in 0.215 M sodium phosphate buffer (pH 8.0) at a final concentration of 230 μM. […] The final volume of each vial was 20 μL. Each assay was run in duplicate. To quantify amyloid fibril formation, the thioflavin T fluorescence method was then applied (cf. H. Naiki et al., “Kinetic Analysis of Amyloid Fibril Polymerization in Vitro”, Lab. Invest. 1991, vol. 65, pp. 104-110). The fluorescence intensities due to β-sheet conformation were monitored for 300 s at λem=490 nm (λexc=446 nm). The percent inhibition of the AChE-induced aggregation due to the presence of the tested compound was calculated by the following expression: 100−(IFi/IFo×100) where IFi and IFe are the fluorescence intensities obtained for Aβ plus AChE in the presence and in the absence of inhibitor, respectively, minus the fluorescence intensities due to the respective blanks.

[9] = biological target: β-Secretase (BACE-1) (Homo sapiens (Human), UniProt P56817); assay: β-Secretase (BACE-1) inhibition assay; type: biochemical; conditions: read-out: BACE-1 IC50
Chain of β-Secretase (BACE-1) (P56817 46-501): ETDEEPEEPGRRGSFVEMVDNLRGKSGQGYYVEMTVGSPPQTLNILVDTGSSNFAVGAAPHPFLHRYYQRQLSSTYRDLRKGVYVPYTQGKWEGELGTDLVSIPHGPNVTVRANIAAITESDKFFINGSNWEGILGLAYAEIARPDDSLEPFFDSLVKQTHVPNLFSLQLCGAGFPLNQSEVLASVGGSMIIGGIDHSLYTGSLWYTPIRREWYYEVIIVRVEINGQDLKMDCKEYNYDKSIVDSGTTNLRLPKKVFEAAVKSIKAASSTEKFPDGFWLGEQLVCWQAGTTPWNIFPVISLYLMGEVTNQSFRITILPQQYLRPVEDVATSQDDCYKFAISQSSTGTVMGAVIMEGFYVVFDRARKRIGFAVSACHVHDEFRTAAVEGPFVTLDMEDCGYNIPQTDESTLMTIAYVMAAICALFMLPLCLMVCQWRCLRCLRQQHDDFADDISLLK
Experimental: β-Secretase (BACE-1, Sigma) inhibition studies were performed by employing a peptide mimicking APP sequence as substrate (methoxycoumarin-[…]dinitrophenyl, M-2420, Bachem). The following procedure was employed: 5 μL of test compound (or DMSO, if preparing a control well) were pre-incubated with 175 μL of the enzyme (in 20 mM sodium acetate containing CHAPS 0.1% w/v) for 1 h at room temperature. The substrate (3 μM, final concentration) was then added and left to react for 15 min. The fluorescence signal was read at λem=405 nm (λexc=320 nm). […] The fluorescence intensities with and without inhibitor were compared and the percent inhibition due to the presence of test compounds was calculated. The background signal was measured in control wells containing all the reagents, except BACE-1 and subtracted. […] Inhibition curves were obtained by plotting the % inhibition versus the logarithm of inhibitor concentration in the assay sample. The linear regression parameters were determined and the IC50 extrapolated (GraphPad Prism 4.0, GraphPad Software Inc.).

[10] = biological target: Aβ1-42 (Homo sapiens, UniProt P05067); assay: Aβ1-42 self-aggregation inhibition assay (thioflavin T); type: biochemical; conditions: inhibitor 10 μM, [Aβ]/[I]=5/1
Experimental: As reported in a previously published protocol (cf. M. Bartolini et al., “Insight into the Kinetic of Amyloid Beta (1-42) Peptide Self-Aggregation: Elucidation of Inhibitors' Mechanism of Action. ChemBioChem 2007, vol. 8, pp. 2152-2161), HFIP pretreated Aβ1-42 samples (Bachem AG, Switzerland) were solubilized with a CH3CN/0.3 mM Na2CO3250 mM NaOH (48.4:48.4:3.2) mixture to obtain a 500 μM solution. Experiments were performed by incubating the peptide in 10 mM phosphate buffer (pH=8.0) containing 10 mM NaCl, at 30° C. for 24 h (final Aβ concentration 50 μM) with and without inhibitor (10 μM, Aβ/inhibitor=5/1). Blanks containing the tested inhibitors were also prepared and tested.

[11] = 7-month-old APP-PS1 mice, FIG. 9A
[12] = 11-month-old APP-PS1 mice, FIG. 9B
[13] = 7-month-old APP-PS1 mice, FIG. 7A
[14] = 11-month-old APP-PS1 mice, FIG. 7B
[15] = 7-month-old APP-PS1 mice, FIG. 8
[16] = 11-month-old APP-PS1 mice, FIG. 8B

Structure (SMILES)	area occupied by hyper-reactive astrocytes (GFAP), inflammatory response [1, 11]	area occupied by hyper-reactive astrocytes (GFAP), inflammatory response [1, 12]	IC50 [2] [nM]	Aβ-positive aggregate area, brain cortex [3, 13]	total Aβ load, cortex [3, 14]	LTP magnitude at 60 min [4] [%]	LTP generation (in words) [4]	Th-S positive area, cortex [5, 15]	GluA2 protein level [6]	PSD95 protein level [6]	VGlut1 protein level [6]	synaptophysin (SYP) protein level [6]	cognitive behavior in memory flexibility test (in words) ([7]; 11-month-old APP-PS1 mice)	AChE-induced Aβ1-40 aggregation (%) [8] [%]	IC50 [9] [nM]	IC50 ([9]; stated in text) [nM]	Aβ1-42 self-induced aggregation (%) [10] [%]	also measured
CC1=C[C@H]2Cc3nc4cc(Cl)ccc4c(NCCCCCCCCCNC(=O)c4cc(O)c5c(c4)C(=O)c4cccc(O)c4C5=O)c3[C@@H](C1)C2 [(+)-(Ib)•HCl, (+)-(7R,11R)—N-{9-[(3-chloro-6,7,10,11-tetrahydro-9-methyl-7,11-methanocycloocta[b]quinolin-12-yl)amino]nonyl}-9,10-dihydro-4,5-dihydroxy-9,10-dioxoanthracene-2-carboxamide]	decrease in the inflammatory response	decrease in the inflammatory response	98.9 ± 14.2	significant reduction	reduction in total Aβ load	150	able to generate LTP	significant reduction in the Th-S positive area	increased levels of total protein with every concentration used	increased levels of total protein with every concentration used	no changes	no changes	took less trials to reach learning criteria	36.9 ± 3.4	80 ± 10	80	38.4 ± 5.5	Aβ load, hippocampus [3, 13]: diminished the load levels of Aβ oligomers; total Aβ load, hippocampus [3, 14]: reduction in total load of Aβ; Th-S amyloid aggregates, hippocampal region [5, 15]: reduction in the amyloid aggregates; Th-S amyloid deposits, cortex [5, 16]: reduction in amyloid deposits; Th-S amyloid deposits, hippocampus [5, 16]: reduction in amyloid deposits; SYN protein level [6]: increased levels of total protein with every concentration used; number of trials to reach criteria ([7]; 7-month-old APP-PS1 mice, i.p. three times per week for 4 weeks, untreated about 12-13 trials): 7 trials
CC1=C[C@@H]2Cc3nc4cc(Cl)ccc4c(NCCCCCCCCCNC(=O)c4cc(O)c5c(c4)C(=O)c4cccc(O)c4C5=O)c3[C@H](C1)C2 [(−)-(Ib)•HCl, (−)-(7S,11S)—N-{9-[(3-chloro-6,7,10,11-tetrahydro-9-methyl-7,11-methanocycloocta[b]quinolin-12-yl)amino]nonyl}-9,10-dihydro-4,5-dihydroxy-9,10-dioxoanthracene-2-carboxamide]	decrease in the inflammatory response	decrease in the inflammatory response	9.4 ± 1.6	significant reduction	reduction in total Aβ load	150	able to generate LTP	significant reduction in the Th-S positive area	evident effect at 10 and 100 μM	evident effect at 10 and 100 μM	increment for every concentration	no effects were observed	no significant change	38.1 ± 0.7	80 ± 10	80	43.2 ± 4.7	cognitive behavior in memory flexibility test (in words) ([7]; 7-month-old APP-PS1 mice): improved behavior within days

— patent publication US9238626B2 (priority 2012, dated 2016)
